pIC50: −log10 of the molar value.

For one assay, the system named is Lox-IMVI melanoma cell line. In words: Lox-IMVI anti-proliferative assay (growth inhibition, Cell Titer-Glo). Particulars: Homo sapiens; IC50 activity level in the cell-based Lox-IMVI anti-proliferative assay; read-out: Activity. In kind it is cell-based, human. The method, boiled down:
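Growth inhibition is assessed over 72 h in RPMI + 10% FBS at 0.2% DMSO, with ATP-based luminescence used as the viability measure. IC50 is fitted from normalized dose-response data.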
(In ATP-based viability assays light output follows the ATP content of the culture.)
For `NC(=O)[C@H]1CC[C@@H](n2c(Nc3c(F)cc(F)cc3Cl)nc3cnc(N[C@H]4CCC[C@@H](O)C4)nc32)CC1` [Example 371, (1R,4s)-4-(8-(2-chloro-4,6-difluorophenylamino)-2-((1S,3R)-3-hydroxycyclohexylamino)-9H-purin-9-yl)cyclohexanecarboxamide], the pIC50 was less than 6.00.

In the case of `NC(=O)[C@H]1CC[C@@H](n2c(Nc3cccc(F)c3Cl)nc3cnc(NC4CCOCC4)nc32)CC1` [Example 61, (1s,4s)-4-(8-(2-chloro-3-fluorophenylamino)-2-(tetrahydro-2H-pyran-4-ylamino)-9H-purin-9-yl)cyclohexanecarboxamide], the pIC50 is less than 6.00.

`Cc1c(Nc2nc3cnc(NC4CCOCC4)nc3n2[C@H]2CC[C@@H](C(N)=O)CC2)ccc(Cl)c1F` [Example 89, (1s,4s)-4-(8-(4-chloro-3-fluoro-2-methylphenylamino)-2-(tetrahydro-2H-pyran-4-ylamino)-9H-purin-9-yl)cyclohexanecarboxamide]: the pIC50 is less than 6.00.

Take `NC(=O)[C@H]1CC[C@@H](n2c(Nc3c(F)cccc3Cl)nc3cnc(NC4CCN(c5cccnc5)CC4)nc32)CC1` [Example 107, (1s,4s)-4-(8-(2-chloro-6-fluorophenylamino)-2-(1-(pyridin-3-yl)piperidin-4-ylamino)-9H-purin-9-yl)cyclohexanecarboxamide]: the pIC50 was less than 6.00.

Turning to `CS(=O)(=O)N1CCC(Nc2ncc3nc(Nc4c(F)cccc4Cl)n([C@H]4CC[C@@H](C(N)=O)CC4)c3n2)CC1` [Example 114, (1s,4s)-4-(8-(2-chloro-6-fluorophenylamino)-2-(1-(methylsulfonyl)piperidin-4-ylamino)-9H-purin-9-yl)cyclohexanecarboxamide], the pIC50 was less than 6.00.

As to `NC(=O)[C@H]1CC[C@@H](n2c(Nc3c(F)ccc(Cl)c3F)nc3cnc(NC4CC5(COC5)C4)nc32)CC1` [Example 196, (1s,4s)-4-(2-(2-oxaspiro[3.3]heptan-6-ylamino)-8-(3-chloro-2,6-difluorophenylamino)-9H-purin-9-yl)cyclohexanecarboxamide], the pIC50 is less than 6.00.

For the compound `NC(=O)[C@H]1CC[C@@H](n2c(Nc3ccc(Cl)c(F)c3F)nc3cnc(N[C@@H]4CCC[C@H](O)C4)nc32)CC1` [Example 360, (1S,4s)-4-(8-(4-chloro-2,3-difluorophenylamino)-2-((1R,3S)-3-hydroxycyclohexylamino)-9H-purin-9-yl)cyclohexanecarboxamide], the pIC50 was less than 6.00.

Regarding `NC(=O)[C@H]1CC[C@@H](n2c(Nc3cc(F)c(Cl)cc3F)nc3cnc(NC4CCOCC4)nc32)CC1` [Example 70, (1s,4s)-4-(8-(4-chloro-2,5-difluorophenylamino)-2-(tetrahydro-2H-pyran-4-ylamino)-9H-purin-9-yl)cyclohexanecarboxamide], the pIC50 is 6.00 to 6.30.

As for `C[C@@H]1CC[C@@H](Nc2ncc3nc(Nc4c(F)cc(Cl)cc4F)n([C@H]4CC[C@@H](C(N)=O)CC4)c3n2)C[C@H]1O` [Example 356, (1S,4s)-4-(8-(4-chloro-2,6-difluorophenylamino)-2-((1R,3R,4R)-3-hydroxy-4-methylcyclohexylamino)-9H-purin-9-yl)cyclohexanecarboxamide], the pIC50 is less than 6.00.

As to `NC(=O)[C@H]1CC[C@@H](n2c(Nc3c(F)cc(F)cc3F)nc3cnc(N[C@H]4CCOC[C@@H]4F)nc32)CC1` [Example 277, (1R,4s)-4-(2-((3R,4S)-3-fluorotetrahydro-2H-pyran-4-ylamino)-8-(2,4,6-trifluorophenylamino)-9H-purin-9-yl)cyclohexanecarboxamide], the pIC50 was less than 6.00.

As to `NC(=O)[C@H]1CC[C@@H](n2c(Nc3c(F)cccc3F)nc3cnc(NC4CCC4)nc32)CC1` [Example 42], the pIC50 is less than 6.00.

With `NC(=O)[C@H]1CC[C@@H](n2c(Nc3c(F)cc(Cl)cc3F)nc3cnc(N[C@H]4CCCOC4)nc32)CC1` [Example 203, (1R,4s)-4-(8-(4-chloro-2,6-difluorophenylamino)-2-((S)-tetrahydro-2H-pyran-3-ylamino)-9H-purin-9-yl)cyclohexanecarboxamide], the pIC50 is less than 6.00.

For `NC(=O)[C@H]1CC[C@@H](n2c(Nc3cc(Cl)ccc3F)nc3cnc(N[C@@H]4CCC[C@H]4O)nc32)CC1` [Example 262, (1S,4s)-4-(8-(5-chloro-2-fluorophenylamino)-2-((1R,2R)-2-hydroxycyclopentylamino)-9H-purin-9-yl)cyclohexanecarboxamide], the pIC50 is less than 6.00.

Consider `CC(C)(C)OC(=O)N1CCC[C@@H](Nc2ncc3nc(Nc4c(F)cc(F)cc4F)n([C@H]4CC[C@@H](C(N)=O)CC4)c3n2)C1` [Example 158, (R)-tert-butyl 3-(9-((1s,4S)-4-carbamoylcyclohexyl)-8-(2,4,6-trifluorophenylamino)-9H-purin-2-ylamino)piperidine-1-carboxylate], for which the pIC50 is less than 6.00.

Regarding `NC(=O)[C@H]1CC[C@@H](n2c(Nc3ccc(Cl)cc3Cl)nc3cnc(N[C@H]4COC[C@@H]4O)nc32)CC1` [Example 319, (1R,4s)-4-(8-(2,4-dichlorophenylamino)-2-((3S,4R)-4-hydroxytetrahydrofuran-3-ylamino)-9H-purin-9-yl)cyclohexanecarboxamide], the pIC50 is less than 6.00.

Consider `NC(=O)[C@H]1CC[C@@H](n2c(Nc3c(F)ccc(Cl)c3F)nc3cnc(N[C@H]4COC[C@@H]4O)nc32)CC1` [Example 318, (1R,4s)-4-(8-(3-chloro-2,6-difluorophenylamino)-2-((3S,4R)-4-hydroxytetrahydrofuran-3-ylamino)-9H-purin-9-yl)cyclohexanecarboxamide], for which the pIC50 is less than 6.00.

With `NC(=O)[C@H]1CC[C@@H](n2c(Nc3c(F)ccc(F)c3F)nc3cnc(NC4CC(F)(F)C4)nc32)CC1` [Example 233, (1s,4s)-4-(2-(3,3-difluorocyclobutylamino)-8-(2,3,6-trifluorophenylamino)-9H-purin-9-yl)cyclohexanecarboxamide], the pIC50 was 6.00 to 6.30.

The same assay, now with this note: Homo sapiens; Lox-IMVI anti-proliferative assay, IC50 activity level; read-out: Activity.
For `NC(=O)[C@H]1CC[C@@H](n2c(Nc3c(F)cc(F)cc3F)nc3cnc(N[C@H]4CCCC[C@H]4O)nc32)CC1` [Example 512, (1R,4s)-4-(2-((1S,2R)-2-hydroxycyclohexylamino)-8-(2,4,6-trifluorophenylamino)-9H-purin-9-yl)cyclohexanecarboxamide], the pIC50 is less than 6.00.

As for `C[C@]1(O)CCC[C@@H](Nc2ncc3nc(Nc4c(F)cc(F)cc4Cl)n([C@H]4CC[C@@H](C(N)=O)CC4)c3n2)C1` [Example 425, (1S,4s)-4-(8-(2-chloro-4,6-difluorophenylamino)-2-((1R,3S)-3-hydroxy-3-methylcyclohexylamino)-9H-purin-9-yl)cyclohexanecarboxamide], the pIC50 was less than 6.00.

As to `C[C@@H]1COCC[C@@H]1Nc1ncc2nc(Nc3c(F)cc(F)cc3F)n([C@H]3CC[C@@H](C(N)=O)CC3)c2n1` [Example 511, (1R,4s)-4-(2-((3S,4S)-3-methyltetrahydro-2H-pyran-4-ylamino)-8-(2,4,6-trifluorophenylamino)-9H-purin-9-yl)cyclohexanecarboxamide], the pIC50 was 6.00 to 6.30.

For `C[C@H]1COCC[C@@H]1Nc1ncc2nc(Nc3c(F)cc(Cl)cc3F)n([C@H]3CC[C@@H](C(N)=O)CC3)c2n1` [Example 507, (1R,4s)-4-(8-(4-chloro-2,6-difluorophenylamino)-2-((3R,4S)-3-methyltetrahydro-2H-pyran-4-ylamino)-9H-purin-9-yl)cyclohexanecarboxamide], the pIC50 is less than 6.00.

On to `N#Cc1cc(F)c(Nc2nc3cnc(NC4CCCOCC4)nc3n2[C@H]2CC[C@@H](C(N)=O)CC2)c(Cl)c1` (stereo partly drawn) [Example 543, (1s,4s)-4-(8-(2-chloro-4-cyano-6-fluorophenylamino)-2-(oxepan-4-ylamino)-9H-purin-9-yl)cyclohexanecarboxamide], for which the pIC50 is more than 6.60.

In the case of `C[C@H]1COCC[C@@H]1Nc1ncc2nc(Nc3c(Cl)cc(C#N)cc3Cl)n([C@H]3CC[C@@H](C(N)=O)CC3)c2n1` [Example 496, (1R,4s)-4-(8-(2,6-dichloro-4-cyanophenylamino)-2-((3R,4S)-3-methyltetrahydro-2H-pyran-4-ylamino)-9H-purin-9-yl)cyclohexanecarboxamide], the pIC50 was 6.30 to 6.60.

For the compound `C[C@]1(C(N)=O)CC[C@@H](n2c(Nc3c(F)cc(Cl)cc3F)nc3cnc(NC4CC(F)(F)C4)nc32)CC1` [Example 581, (1s,4s)-4-(8-(4-chloro-2,6-difluorophenylamino)-2-(3,3-difluorocyclobutylamino)-9H-purin-9-yl)-1-methylcyclohexanecarboxamide], the pIC50 is more than 6.60.

Staying with this assay, now noted: Homo sapiens; Lox-IMVI melanoma cell line, anti-proliferative assay; read-out: Activity (IC50 activity level).
As to `NC(=O)[C@H]1CC[C@@H](n2c(Nc3c(F)cc(Cl)cc3Cl)nc3cnc(N[C@H]4CCOC[C@H]4F)nc32)CC1` [Example 714, (1R,4s)-4-(8-(2,4-dichloro-6-fluorophenylamino)-2-((3S,4S)-3-fluorotetrahydro-2H-pyran-4-ylamino)-9H-purin-9-yl)cyclohexanecarboxamide], the pIC50 is more than 6.60.

With `N#Cc1cc(Cl)c(Nc2nc3cnc(N[C@@H]4CCC(F)(F)C4)nc3n2[C@H]2CC[C@@H](C(N)=O)CC2)c(Cl)c1` [Example 699, (1S,4s)-4-(8-(2,6-dichloro-4-cyanophenylamino)-2-((R)-3,3-difluorocyclopentylamino)-9H-purin-9-yl)cyclohexanecarboxamide], the pIC50 was 6.30 to 6.60.

`CCN1CCC[C@@H](Nc2ncc3nc(Nc4c(Cl)cc(C(F)(F)F)cc4Cl)n([C@H]4CC[C@@H](C(N)=O)CC4)c3n2)C1` [Example 737, (1S,4s)-4-(8-(2,6-dichloro-4-(trifluoromethyl)phenylamino)-2-((R)-1-ethylpiperidin-3-ylamino)-9H-purin-9-yl)cyclohexanecarboxamide]: the pIC50 is less than 6.00.

Values taken from patent US11590139B2, “Substituted aminopurine compounds, compositions thereof, and methods of treatment therewith” (Signal Pharmaceuticals, LLC, priority 2014, dated 2023).
